Reference: the NIST ThermoML archive (doi:10.1016/j.jct.2016.10.016)
± gives the expanded uncertainty stated by the source.

Experiment: mn = molality of the nth substance listed, in mol/kg
Details: 101.3 kPa, Liquid

COC(=O)[C@@H](N)C(C)C.Cl [methyl L-valinate hydrochloride] + O
Details | speed of sound [m/s]
278.15 K, Frequency=2 MHz, Linear variable-path acoustic interferometer, m1 = 0.0389 | 1431.7 ± 2
278.15 K, Frequency=2 MHz, Linear variable-path acoustic interferometer, m1 = 0.0499 | 1433.3 ± 2
278.15 K, Frequency=2 MHz, Linear variable-path acoustic interferometer, m1 = 0.0592 | 1434.2 ± 2
278.15 K, Frequency=2 MHz, Linear variable-path acoustic interferometer, m1 = 0.0705 | 1436.3 ± 2
278.15 K, Frequency=2 MHz, Linear variable-path acoustic interferometer, m1 = 0.0811 | 1437.4 ± 2
278.15 K, Frequency=2 MHz, Linear variable-path acoustic interferometer, m1 = 0.0888 | 1438.7 ± 2
278.15 K, Frequency=2 MHz, Linear variable-path acoustic interferometer, m1 = 0.1015 | 1441.1 ± 2
278.15 K, Frequency=2 MHz, Linear variable-path acoustic interferometer, m1 = 0.1094 | 1441.3 ± 2
278.15 K, Frequency=2 MHz, Linear variable-path acoustic interferometer, m1 = 0.1204 | 1443.8 ± 2
278.15 K, Frequency=2 MHz, Linear variable-path acoustic interferometer, m1 = 0.1307 | 1445.3 ± 2
278.15 K, Frequency=2 MHz, Linear variable-path acoustic interferometer, m1 = 0.1428 | 1446.5 ± 2
278.15 K, Frequency=2 MHz, Linear variable-path acoustic interferometer, m1 = 0.1528 | 1448 ± 2
288.15 K, Frequency=3 MHz, Sing-around technique in a fixed-path interferometer, m1 = 0.0507 | 1472.3 ± 1.2
288.15 K, Frequency=3 MHz, Sing-around technique in a fixed-path interferometer, m1 = 0.0607 | 1473.5 ± 1.2
288.15 K, Frequency=3 MHz, Sing-around technique in a fixed-path interferometer, m1 = 0.0699 | 1474.5 ± 1.2
288.15 K, Frequency=3 MHz, Sing-around technique in a fixed-path interferometer, m1 = 0.0798 | 1475.7 ± 1.2
288.15 K, Frequency=3 MHz, Sing-around technique in a fixed-path interferometer, m1 = 0.09 | 1476.9 ± 1.2
288.15 K, Frequency=3 MHz, Sing-around technique in a fixed-path interferometer, m1 = 0.0999 | 1478.3 ± 1.2
288.15 K, Frequency=3 MHz, Sing-around technique in a fixed-path interferometer, m1 = 0.1099 | 1479.2 ± 1.2
288.15 K, Frequency=3 MHz, Sing-around technique in a fixed-path interferometer, m1 = 0.1201 | 1480.4 ± 1.3
288.15 K, Frequency=3 MHz, Sing-around technique in a fixed-path interferometer, m1 = 0.1295 | 1481.6 ± 1.3
288.15 K, Frequency=3 MHz, Sing-around technique in a fixed-path interferometer, m1 = 0.1399 | 1482.8 ± 1.3
288.15 K, Frequency=3 MHz, Sing-around technique in a fixed-path interferometer, m1 = 0.1497 | 1484.3 ± 1.3
288.15 K, Frequency=3 MHz, Sing-around technique in a fixed-path interferometer, m1 = 0.16 | 1485.9 ± 1.3
298.15 K, Frequency=3 MHz, Sing-around technique in a fixed-path interferometer, m1 = 0.0405 | 1501.4 ± 1.2
298.15 K, Frequency=3 MHz, Sing-around technique in a fixed-path interferometer, m1 = 0.0504 | 1502.5 ± 1.2
298.15 K, Frequency=3 MHz, Sing-around technique in a fixed-path interferometer, m1 = 0.06 | 1503.7 ± 1.2
298.15 K, Frequency=3 MHz, Sing-around technique in a fixed-path interferometer, m1 = 0.0703 | 1504.9 ± 1.2
298.15 K, Frequency=3 MHz, Sing-around technique in a fixed-path interferometer, m1 = 0.0804 | 1505.9 ± 1.2
298.15 K, Frequency=3 MHz, Sing-around technique in a fixed-path interferometer, m1 = 0.0903 | 1507.1 ± 1.2
298.15 K, Frequency=3 MHz, Sing-around technique in a fixed-path interferometer, m1 = 0.1001 | 1508.1 ± 1.3
298.15 K, Frequency=3 MHz, Sing-around technique in a fixed-path interferometer, m1 = 0.1103 | 1509.6 ± 1.3
298.15 K, Frequency=3 MHz, Sing-around technique in a fixed-path interferometer, m1 = 0.12 | 1510.3 ± 1.2
298.15 K, Frequency=3 MHz, Sing-around technique in a fixed-path interferometer, m1 = 0.1305 | 1511.4 ± 1.3
298.15 K, Frequency=3 MHz, Sing-around technique in a fixed-path interferometer, m1 = 0.1401 | 1513 ± 1.3
298.15 K, Frequency=3 MHz, Sing-around technique in a fixed-path interferometer, m1 = 0.1514 | 1513.8 ± 1.2

Details | mass density [kg/m3]
278.15 K, Pycnometric method, m1 = 0.0389 | 1001.17 ± 0.28
278.15 K, Pycnometric method, m1 = 0.0499 | 1001.51 ± 0.28
278.15 K, Pycnometric method, m1 = 0.0592 | 1001.8 ± 0.28
278.15 K, Pycnometric method, m1 = 0.0705 | 1002.15 ± 0.28
278.15 K, Pycnometric method, m1 = 0.0811 | 1002.48 ± 0.28
278.15 K, Pycnometric method, m1 = 0.0888 | 1002.72 ± 0.28
278.15 K, Pycnometric method, m1 = 0.1015 | 1003.1 ± 0.29
278.15 K, Pycnometric method, m1 = 0.1094 | 1003.35 ± 0.29
278.15 K, Pycnometric method, m1 = 0.1204 | 1003.7 ± 0.29
278.15 K, Pycnometric method, m1 = 0.1307 | 1004 ± 0.29
278.15 K, Pycnometric method, m1 = 0.1428 | 1004.38 ± 0.29
278.15 K, Pycnometric method, m1 = 0.1528 | 1004.7 ± 0.3
288.15 K, Vibrating tube method, m1 = 0.0507 | 1000.66 ± 0.11
288.15 K, Vibrating tube method, m1 = 0.0607 | 1000.96 ± 0.11
288.15 K, Vibrating tube method, m1 = 0.0699 | 1001.25 ± 0.12
288.15 K, Vibrating tube method, m1 = 0.0798 | 1001.55 ± 0.12
288.15 K, Vibrating tube method, m1 = 0.09 | 1001.87 ± 0.12
288.15 K, Vibrating tube method, m1 = 0.0999 | 1002.17 ± 0.12
288.15 K, Vibrating tube method, m1 = 0.1099 | 1002.46 ± 0.13
288.15 K, Vibrating tube method, m1 = 0.1201 | 1002.78 ± 0.13
288.15 K, Vibrating tube method, m1 = 0.1295 | 1003.07 ± 0.13
288.15 K, Vibrating tube method, m1 = 0.1399 | 1003.4 ± 0.14
288.15 K, Vibrating tube method, m1 = 0.1497 | 1003.7 ± 0.14
288.15 K, Vibrating tube method, m1 = 0.16 | 1004 ± 0.14
298.15 K, Vibrating tube method, m1 = 0.0405 | 998.23 ± 0.11
298.15 K, Vibrating tube method, m1 = 0.0504 | 998.52 ± 0.11
298.15 K, Vibrating tube method, m1 = 0.06 | 998.78 ± 0.11
298.15 K, Vibrating tube method, m1 = 0.0703 | 999.08 ± 0.11
298.15 K, Vibrating tube method, m1 = 0.0804 | 999.37 ± 0.12
298.15 K, Vibrating tube method, m1 = 0.0903 | 999.66 ± 0.12
298.15 K, Vibrating tube method, m1 = 0.1001 | 999.92 ± 0.12
298.15 K, Vibrating tube method, m1 = 0.1103 | 1000.24 ± 0.13
298.15 K, Vibrating tube method, m1 = 0.12 | 1000.51 ± 0.12
298.15 K, Vibrating tube method, m1 = 0.1305 | 1000.78 ± 0.13
298.15 K, Vibrating tube method, m1 = 0.1401 | 1001.06 ± 0.13
298.15 K, Vibrating tube method, m1 = 0.1514 | 1001.39 ± 0.14

O [water] + COC(=O)[C@@H](N)C(C)C.Cl
Details | speed of sound [m/s]
278.15 K, Frequency=2 MHz, Linear variable-path acoustic interferometer, m2 = 0 | 1426.2 ± 2

Details | mass density [kg/m3]
278.15 K, Pycnometric method, m2 = 0 | 999.96 ± 0.28

O [water] + COC(=O)[C@H](C)N.Cl
Details | speed of sound [m/s]
278.15 K, Frequency=2 MHz, Linear variable-path acoustic interferometer, m2 = 0 | 1426.2 ± 2

Details | mass density [kg/m3]
278.15 K, Pycnometric method, m2 = 0 | 999.96 ± 0.28
